Laboratory results as given in ChEMBL document CHEMBL6127119 (J Med Chem, 2024).
≈ marks a conversion by molar mass, not a printed value.

Key:
Assay type in all cases: functional
Conditions in all cases: time 16-24 hrs
Enterococcus faecium [1] = assay: Antibacterial activity against vancomycin-resistant Enterococcus faecium harboring VanA phenotype clinical isolate incubated for 16 to 24 hrs by CLSI based broth microdilution method
Staphylococcus hominis = assay: Antibacterial activity against methicillin-resistant Staphylococcus hominis clinical isolate incubated for 16 to 24 hrs by CLSI based broth microdilution method
Staphylococcus aureus [2] = assay: Antibacterial activity against methicillin-resistant Staphylococcus aureus clinical isolate incubated for 16 to 24 hrs by CLSI based broth microdilution method
Enterococcus faecalis = assay: Antibacterial activity against Enterococcus faecalis clinical isolate incubated for 16 to 24 hrs by CLSI based broth microdilution method
[3] = tested on: Staphylococcus haemolyticus; assay: Antibacterial activity against methicillin-resistant Staphylococcus haemolyticus clinical isolate incubated for 16 to 24 hrs by CLSI based broth microdilution method
Enterococcus faecium [4] = assay: Antibacterial activity against vancomycin-resistant Enterococcus faecium harboring VanM phenotype incubated for 16 to 24 hrs by CLSI based broth microdilution method
Enterococcus faecium [5] = assay: Antibacterial activity against vancomycin-resistant Enterococcus faecium harboring VanA phenotype incubated for 16 to 24 hrs by CLSI based broth microdilution method
Escherichia coli [6] = assay: Potency index, ratio of Vancomycin MIC to test compound MIC for Escherichia coli […] incubated for 16 to 24 hrs by CLSI based broth microdilution method
Acinetobacter baumannii [7] = assay: Potency index, ratio of Norvancomycin MIC to test compound MIC for Carbapenem-resistant Acinetobacter baumannii clinical isolate incubated for 16 to 24 hrs by CLSI based broth microdilution method
Acinetobacter baumannii [8] = assay: Potency index, ratio of Vancomycin MIC to test compound MIC for Carbapenem-resistant Acinetobacter baumannii clinical isolate incubated for 16 to 24 hrs by CLSI based broth microdilution method
Acinetobacter baumannii [9] = assay: Antibacterial activity against Carbapenem-resistant Acinetobacter baumannii clinical isolate incubated for 16 to 24 hrs by CLSI based broth microdilution method
Enterococcus faecium [10] = assay: Potency index, ratio of Vancomycin MIC to test compound MIC for vancomycin-resistant Enterococcus faecium incubated for 16 to 24 hrs by CLSI based broth microdilution method
Enterococcus faecium [11] = assay: Antibacterial activity against vancomycin-resistant Enterococcus faecium harboring VanB phenotype incubated for 16 to 24 hrs by CLSI based broth microdilution method
Staphylococcus aureus [12] = assay: Antibacterial activity against vancomycin-intermediate Staphylococcus aureus incubated for 16 to 24 hrs by CLSI based broth microdilution method
Klebsiella pneumoniae = assay: Antibacterial activity against Klebsiella pneumoniae clinical isolate incubated for 16 to 24 hrs by CLSI based broth microdilution method
Escherichia coli [13] = assay: Antibacterial activity against Escherichia coli AB1157 incubated for 16 to 24 hrs by CLSI based broth microdilution method
Staphylococcus aureus [14] = assay: Antibacterial activity against methicillin-susceptible Staphylococcus aureus incubated for 16 to 24 hrs by CLSI based broth microdilution method
Escherichia coli [15] = assay: Potency index, ratio of Norvancomycin MIC to test compound MIC for Escherichia coli […] incubated for 16 to 24 hrs by CLSI based broth microdilution method
Staphylococcus aureus [16] = assay: Potency index, ratio of Norvancomycin MIC to test compound MIC for vancomycin-intermediate Staphylococcus aureus incubated for 16 to 24 hrs by CLSI based broth microdilution method
Staphylococcus aureus [17] = assay: Potency index, ratio of Vancomycin MIC to test compound MIC for vancomycin-intermediate Staphylococcus aureus incubated for 16 to 24 hrs by CLSI based broth microdilution method
Enterococcus faecium [18] = assay: Potency index, ratio of Norvancomycin MIC to test compound MIC for vancomycin-resistant Enterococcus faecium incubated for 16 to 24 hrs by CLSI based broth microdilution method
Pseudomonas aeruginosa = assay: Antibacterial activity against Pseudomonas aeruginosa PAO1 incubated for 16 to 24 hrs by CLSI based broth microdilution method

Row | Compound | MIC (Enterococcus faecium [4]) | MIC (Enterococcus faecium [5]) | Ratio (Escherichia coli [6]) | Ratio (Acinetobacter baumannii [7]) | Ratio (Acinetobacter baumannii [8]) | MIC (Acinetobacter baumannii [9]) | Ratio (Enterococcus faecium [10]) | MIC (Enterococcus faecium [11]) | MIC (Staphylococcus aureus [12]) | MIC (Klebsiella pneumoniae) | MIC (Escherichia coli [13]) | MIC (Staphylococcus aureus [14]) | Ratio (Escherichia coli [15]) | Ratio (Staphylococcus aureus [16]) | Ratio (Staphylococcus aureus [17]) | Ratio (Enterococcus faecium [18]) | MIC (Pseudomonas aeruginosa) | further results
1 | CN[C@H](CC(C)C)C(=O)N[C@H]1C(=O)N[C@@H](CC(N)=O)C(=O)N[C@H]2C(=O)N[C@H]3C(=O)N[C@H](C(=O)N[C@H](C(=O)O)c4cc(O)cc(O)c4-c4cc3ccc4O)[C@H](O)c3ccc(c(Cl)c3)Oc3cc2cc(c3O[C@@H]2O[C@H](CO)[C@@H](O)[C@H](O)[C@H]2O[C@H]2C[C@](C)(N)[C@H](O)[C@H](C)O2)Oc2ccc(cc2Cl)[C@H]1O [VANCOMYCIN] | – | – | – | – | – | – | – | – | – | – | – | – | – | – | – | – | – | MIC (Enterococcus faecium [1]): > 64 µg/mL; MIC (Staphylococcus hominis): 1 µg/mL (≈ 0.69 µM); MIC (Staphylococcus aureus [2]): 0.25 µg/mL (≈ 0.173 µM); MIC (Enterococcus faecalis): ≤ 0.03 µg/mL; MIC [3]: 1 µg/mL (≈ 0.69 µM)
2 | CN[C@H](CC(C)C)C(=O)N[C@H]1C(=O)N[C@@H](CC(N)=O)C(=O)N[C@H]2C(=O)N[C@H]3C(=O)N[C@H](C(=O)N[C@H](C(=O)NCc4ccc(-c5ccc(CNC(=N)N)cc5)cc4)c4cc(O)cc(O)c4-c4cc3ccc4O)[C@H](O)c3ccc(c(Cl)c3)Oc3cc2cc(c3O[C@@H]2O[C@H](CO)[C@@H](O)[C@H](O)[C@H]2O[C@H]2C[C@](C)(N)[C@H](O)[C@H](C)O2)Oc2ccc(cc2Cl)[C@H]1O | 2 µg/mL (≈ 1.19 µM) | 2 µg/mL (≈ 1.19 µM) | 2 | 2 | 2 | 32 µg/mL (≈ 19 µM) | 2 | 1 µg/mL (≈ 0.593 µM) | 0.5 µg/mL (≈ 0.297 µM) | > 128 µg/mL | 8 µg/mL (≈ 4.75 µM) | 0.125 µg/mL (≈ 0.0742 µM) | 2 | 2 | 2 | 2 | – | –
3 | CC(C)C[C@@H](N)C(=O)N[C@H]1C(=O)N[C@@H](CC(N)=O)C(=O)N[C@H]2C(=O)N[C@H]3C(=O)N[C@H](C(=O)N[C@H](C(=O)NCc4ccc(-c5ccccc5CNC(=N)N)cc4)c4cc(O)cc(O)c4-c4cc3ccc4O)[C@H](O)c3ccc(c(Cl)c3)Oc3cc2cc(c3O[C@@H]2O[C@H](CO)[C@@H](O)[C@H](O)[C@H]2O[C@H]2C[C@](C)(N)[C@H](O)[C@H](C)O2)Oc2ccc(cc2Cl)[C@H]1O | 2 µg/mL (≈ 1.2 µM) | 4 µg/mL (≈ 2.39 µM) | 2 | 2 | 2 | 16 µg/mL (≈ 9.57 µM) | 2 | 2 µg/mL (≈ 1.2 µM) | 0.5 µg/mL (≈ 0.299 µM) | > 128 µg/mL | 8 µg/mL (≈ 4.79 µM) | ≤ 0.063 µg/mL | 2 | 2 | 2 | 2 | 32 µg/mL (≈ 19.1 µM) | –
4 | CC(C)C[C@@H](N)C(=O)N[C@H]1C(=O)N[C@@H](CC(N)=O)C(=O)N[C@H]2C(=O)N[C@H]3C(=O)N[C@H](C(=O)N[C@H](C(=O)NCc4ccc(-c5cccc(CNC(=N)N)c5)cc4)c4cc(O)cc(O)c4-c4cc3ccc4O)[C@H](O)c3ccc(c(Cl)c3)Oc3cc2cc(c3O[C@@H]2O[C@H](CO)[C@@H](O)[C@H](O)[C@H]2O[C@H]2C[C@](C)(N)[C@H](O)[C@H](C)O2)Oc2ccc(cc2Cl)[C@H]1O | 1 µg/mL (≈ 0.598 µM) | 2 µg/mL (≈ 1.2 µM) | 2 | 2 | 2 | 64 µg/mL (≈ 38.3 µM) | 2 | 2 µg/mL (≈ 1.2 µM) | 0.25 µg/mL (≈ 0.15 µM) | > 128 µg/mL | 16 µg/mL (≈ 9.57 µM) | ≤ 0.063 µg/mL | 2 | 2 | 2 | 2 | 128 µg/mL (≈ 76.6 µM) | –
5 | CC(C)C[C@@H](N)C(=O)N[C@H]1C(=O)N[C@@H](CC(N)=O)C(=O)N[C@H]2C(=O)N[C@H]3C(=O)N[C@H](C(=O)N[C@H](C(=O)NCc4ccc(-c5ccc(CCNC(=N)N)cc5)cc4)c4cc(O)cc(O)c4-c4cc3ccc4O)[C@H](O)c3ccc(c(Cl)c3)Oc3cc2cc(c3O[C@@H]2O[C@H](CO)[C@@H](O)[C@H](O)[C@H]2O[C@H]2C[C@](C)(N)[C@H](O)[C@H](C)O2)Oc2ccc(cc2Cl)[C@H]1O | 2 µg/mL (≈ 1.19 µM) | 4 µg/mL (≈ 2.37 µM) | 2 | 2 | 2 | 64 µg/mL (≈ 38 µM) | 2 | 4 µg/mL (≈ 2.37 µM) | 0.5 µg/mL (≈ 0.297 µM) | > 128 µg/mL | 8 µg/mL (≈ 4.75 µM) | 0.125 µg/mL (≈ 0.0742 µM) | 2 | 2 | 2 | 2 | > 128 µg/mL | –
